The results in this text go back to patent US8101766B2, “Crystalline form of a biphenyl compound” (Theravance, Inc., priority 2004, dated 2012).

The test concerns acetylcholine-induced or histamine-induced bronchoconstriction. As to the kind of experiment: Duration of bronchoprotection in guinea pig models of acetylcholine-induced or histamine-induced bronchoconstriction (model not specified for the result). It is filed as in vivo. As to conditions: inhalation. As for the experimental part: Duration of Bronchoprotection in Guinea Pig Models of Acetylcholine-Induced or Histamine-Induced Bronchoconstriction
To isolate muscarinic antagonist activity in the acetylcholine-induced bronchoconstriction model, the animals were administered propanolol, a compound that blocks β receptor activity, prior to the administration of acetylcholine. Duration of bronchoprotection in the histamine-induced bronchoconstriction model reflects β2 adrenergic receptor agonist activity.
Groups of 6 male guinea pigs (Duncan-Hartley (HsdPoc:DH) Harlan, Madison, Wis.) weighing between 250 and 350 g were individually identified by cage cards. Throughout the study, animals were allowed access to food and water ad libitum.
Test compounds were administered via inhalation over 10 minutes in a whole-body exposure dosing chamber (R&S Molds, San Carlos, Calif.). […] This value was measured gravimetrically by comparing pre- and post-nebulization weights of the filled nebulizer.
The bronchoprotective effects of test compounds administered via inhalation were evaluated using whole body plethysmography at 1.5, 24, 48 and 72 hours post-dose. […]
Once it was determined that baseline values were within the range of 0.3-0.9 mL/cm H2O for compliance and within the range of 0.1-0.199 cm H2O/mL per second for resistance, the pulmonary evaluation was initiated. […]

In the case of `COc1cc(NC(=O)CCN2CCC(OC(=O)Nc3ccccc3-c3ccccc3)CC2)c(Cl)cc1CNC[C@H](O)c1ccc(O)c2[nH]c(=O)ccc12` [compound of formula I, biphenyl-2-ylcarbamic acid 1-[2-(2-chloro-4-{[(R)-2-hydroxy-2-(8-hydroxy-2-oxo-1,2-dihydroquinolin-5-yl)ethylamino]methyl}-5-methoxyphenylcarbamoyl)ethyl]piperidin-4-yl ester], the “duration (PD T1/2) of brochoprotective activity” value was “at least 24 hours”.
